Columns and labels:
Experiment in all cases: Test C postemergence
Type in all cases: in vivo
[1] = tested on: winter wheat (Triticum aestivum); conditions: Triticum aestivum, post-emergence, 336 h, Postemergence, scale 0 to 100, read-out: Plant response rating, Wheat
Outline: (§1)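 Greenhouse test; preemergence to seeds in loam/sand soil, or postemergence spray to 2-18 cm, 1- to 4-leaf plants in peat/vermiculite medium; compound in non-phytotoxic solvent plus surfactant. Visual rating vs controls at 13-15 d, 0 = no effect, 100 = complete control.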

[2] = tested on: Italian ryegrass (Lolium multiflorum); conditions: Lolium multiflorum, post-emergence, 336 h, Postemergence, scale 0 to 100, read-out: Plant response rating, Ryegrass, Italian
Outline: as §1

[3] = tested on: large (Lg) crabgrass (Digitaria sanguinalis); conditions: Digitaria sanguinalis, post-emergence, 336 h, Postemergence, scale 0 to 100, read-out: Plant response rating, Crabgrass, Large
Outline: as §1

[4] = tested on: johnsongrass (Sorghum halepense); conditions: Sorghum halepense, post-emergence, 336 h, Postemergence, scale 0 to 100, read-out: Plant response rating, Johnsongrass
Outline: as §1

[5] = tested on: chickweed (common chickweed, Stellaria media); conditions: Stellaria media, post-emergence, Postemergence, scale 0 to 100, read-out: Plant response rating, Chickweed
Outline: as §1

[6] = tested on: pigweed (Amaranthus retroflexus); conditions: Amaranthus retroflexus, post-emergence, 336 h, Postemergence, scale 0 to 100, read-out: Plant response rating, Pigweed
Outline: as §1

[7] = tested on: wild oat (Avena fatua); conditions: Avena fatua, post-emergence, Postemergence, scale 0 to 100, read-out: Plant response rating, Oat, Wild
Outline: as §1

[8] = tested on: velvetleaf (Abutilon theophrasti); conditions: Abutilon theophrasti, post-emergence, Postemergence, scale 0 to 100, read-out: Plant response rating, Velvetleaf
Outline: as §1

[9] = tested on: barnyardgrass (Echinochloa crus-galli); conditions: Echinochloa crus-galli, post-emergence, Postemergence, scale 0 to 100, read-out: Plant response rating, Barnyardgrass
Outline: as §1

[10] = tested on: blackgrass (Alopecurus myosuroides); conditions: Alopecurus myosuroides, post-emergence, 336 h, Postemergence, scale 0 to 100, read-out: Plant response rating, Blackgrass
Outline: as §1

[11] = tested on: giant foxtail (Setaria faberii); conditions: Setaria faberi, post-emergence, 336 h, Postemergence, scale 0 to 100, read-out: Plant response rating, Foxtail, Giant
Outline: as §1

[12] = tested on: morningglory (Ipomoea coccinea); conditions: Ipomoea, post-emergence, 336 h, Postemergence, scale 0 to 100, read-out: Plant response rating, Morningglory
Outline: as §1

[13] = tested on: kochia (Kochia scoparia); conditions: Bassia scoparia, post-emergence, Postemergence, scale 0 to 100, read-out: Plant response rating, Kochia
Outline: as §1

[14] = tested on: yellow nutsedge (Cyperus esculentus); conditions: Cyperus, post-emergence, 336 h, Postemergence, scale 0 to 100, read-out: Plant response rating, Nutsedge, Yellow
Outline: as §1

[15] = tested on: oilseed rape (Brassica napus); conditions: Brassica napus, post-emergence, Postemergence, scale 0 to 100, read-out: Plant response rating, Oilseed Rape
Outline: as §1

`FC(F)c1cccc(Oc2ncc(Cl)cn2)c1Oc1ncc(Cl)cn1` [Compound 46, 2,2′-[[3-(difluoromethyl)-1,2-phenylene]bis(oxy)]bis[5-chloropyrimidine]] was tested, and the plant injury at 31 g/ha ([1]; 31 g ai/ha) was 5%, the plant injury at 62 g/ha ([1]; 62 g ai/ha) was 5% and the plant injury at 125 g/ha ([1]; 125 g ai/ha) was 10%. It also gave a pest or weed control at 31 g/ha ([2]; 31 g ai/ha) of 5%, a pest or weed control at 62 g/ha ([2]; 62 g ai/ha) of 5% and a pest or weed control at 125 g/ha ([2]; 125 g ai/ha) of 10%. The pest or weed control at 16 g/ha ([3]; 16 g ai/ha) was 5%, the pest or weed control at 31 g/ha ([3]; 31 g ai/ha) was 5% and the pest or weed control at 62 g/ha ([3]; 62 g ai/ha) was 10%. The pest or weed control at 125 g/ha ([3]; 125 g ai/ha) was 10%, the pest or weed control at 16 g/ha ([4]; 16 g ai/ha) was 5% and the pest or weed control at 31 g/ha ([4]; 31 g ai/ha) was 10%. It also gave a pest or weed control at 62 g/ha ([4]; 62 g ai/ha) of 5%, a pest or weed control at 125 g/ha ([4]; 125 g ai/ha) of 5% and a pest or weed control at 16 g/ha ([5]; 16 g ai/ha) of 35%. For the same compound, the pest or weed control at 31 g/ha ([5]; 31 g ai/ha) was 40%, the pest or weed control at 62 g/ha ([5]; 62 g ai/ha) was 60% and the pest or weed control at 125 g/ha ([5]; 125 g ai/ha) was 75%. It also gave a pest or weed control at 31 g/ha ([6]; 31 g ai/ha) of 70%, a pest or weed control at 62 g/ha ([6]; 62 g ai/ha) of 70% and a pest or weed control at 125 g/ha ([6]; 125 g ai/ha) of 85%. The pest or weed control at 31 g/ha ([7]; 31 g ai/ha) was 5%, the pest or weed control at 62 g/ha ([7]; 62 g ai/ha) was 5% and the pest or weed control at 125 g/ha ([7]; 125 g ai/ha) was 10%. The pest or weed control at 31 g/ha ([8]; 31 g ai/ha) was 25%, the pest or weed control at 62 g/ha ([8]; 62 g ai/ha) was 55% and the pest or weed control at 125 g/ha ([8]; 125 g ai/ha) was 65%. The pest or weed control at 16 g/ha ([9]; 16 g ai/ha) was 0%, the pest or weed control at 31 g/ha ([9]; 31 g ai/ha) was 5% and the pest or weed control at 62 g/ha ([9]; 62 g ai/ha) was 5%. For the same compound, the pest or weed control at 125 g/ha ([9]; 125 g ai/ha) was 5%, the pest or weed control at 16 g/ha ([10]; 16 g ai/ha) was 0% and the pest or weed control at 31 g/ha ([10]; 31 g ai/ha) was 0%. The pest or weed control at 62 g/ha ([10]; 62 g ai/ha) was 0%, the pest or weed control at 125 g/ha ([10]; 125 g ai/ha) was 5% and the pest or weed control at 16 g/ha ([11]; 16 g ai/ha) was 35%. It also gave a pest or weed control at 31 g/ha ([11]; 31 g ai/ha) of 20%, a pest or weed control at 62 g/ha ([11]; 62 g ai/ha) of 50% and a pest or weed control at 125 g/ha ([11]; 125 g ai/ha) of 25%. The pest or weed control at 31 g/ha ([12]; 31 g ai/ha) was 80%, the pest or weed control at 62 g/ha ([12]; 62 g ai/ha) was 85% and the pest or weed control at 125 g/ha ([12]; 125 g ai/ha) was 90%. The pest or weed control at 16 g/ha ([13]; 16 g ai/ha) was 70%, the pest or weed control at 31 g/ha ([13]; 31 g ai/ha) was 80% and the pest or weed control at 62 g/ha ([13]; 62 g ai/ha) was 95%. For the same compound, the pest or weed control at 125 g/ha ([13]; 125 g ai/ha) was 100%, the pest or weed control at 31 g/ha ([14]; 31 g ai/ha) was 0% and the pest or weed control at 62 g/ha ([14]; 62 g ai/ha) was 5%. It also gave a pest or weed control at 125 g/ha ([14]; 125 g ai/ha) of 5%, a plant injury at 31 g/ha ([15]; 31 g ai/ha) of 30% and a plant injury at 62 g/ha ([15]; 62 g ai/ha) of 50%. For the same compound, the plant injury at 125 g/ha ([15]; 125 g ai/ha) was 65%.
